# Values quoted from earlier work as cited in patent publication US20160228384A1, “EMULSION CONTAINING TWO OILS AND STABILIZERS” (NANOMEDEX, LLC, priority 2015, published 2016).
# What was measured:
# [1] = not given; remark: listed apart in the source
SMILES,Solubility in Water [wt %],Water Solubility in Solvent [wt %],Log P [1]
CCCCCCCC(=O)OCC [Ethyl octanoate],0.051,0.90,3.5
CCCCOC(C)=O [Butyl acetate],0.64,0.98,1.8
CCCC(=O)OCC [Ethyl butyrate],0.69,0.79,1.7

# Second part, the compound after the results:
Solubility in Water [wt %],Water Solubility in Solvent [wt %],Log P [1],SMILES
0.018,0.02,3.4,CCCCCCCCOC(C)=O [Octyl acetate]
0.083,0.47,2.4,CCCCCC(=O)OCC [Ethyl hexanoate]
0.043,0.566,2.4,CCCCCCOC(C)=O [Hexyl acetate]
